Measured values: PubChem BioAssay (NCI)
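Five compound concentrations were applied to cells in 96-well plates for 48 hours; endpoints were derived by simple linear interpolation of the resulting dose-response curve. Definition used: TGI = concentration required for complete inhibition of growth.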 Where a SMILES comes first, the peptide text is derived from it. [ ]: non-standard residue; d: D form. The star is where a group is joined. Bn2Val = CC(C)[C@@H](C(=O)*)N(Cc1ccccc1)Cc1ccccc1; NMeV = CN[C@H](C(=O)O)C(C)C; X29 = COc1ccc(CN*)c(OC)c1; dNMeA = CN[C@H](C)C(=O)O

Key:
Experiment in all cases: NCI-60 cell line screen, 48 h
A549 NSCLC = tested on: A549 NSCLC
COLO 205 colon = tested on: COLO 205 colon
HCT-15 colon = tested on: HCT-15 colon
MDA-MB-231 breast = tested on: MDA-MB-231 breast
MDA-MB-435 = tested on: MDA-MB-435
PC-3 prostate = tested on: PC-3 prostate
RXF 393 renal = tested on: RXF 393 renal
SF-539 CNS = tested on: SF-539 CNS
SK-MEL-2 melanoma = tested on: SK-MEL-2 melanoma
TK-10 renal = tested on: TK-10 renal

SMILES: CC(C)=CCOc1cc(NC(=S)c2ccsc2C)ccc1Cl
- TGI (A549 NSCLC): > 100 µM
- TGI (COLO 205 colon): > 100 µM
- TGI (HCT-15 colon): > 100 µM
- TGI (MDA-MB-231 breast): 83.4 µM
- TGI (MDA-MB-435): > 100 µM
- TGI (PC-3 prostate): > 100 µM
- TGI (RXF 393 renal): 80.6 µM
- TGI (SF-539 CNS): > 100 µM
- TGI (SK-MEL-2 melanoma): > 100 µM
- TGI (TK-10 renal): > 100 µM

SMILES: COC(=O)CCc1c(Cc2ccc[nH]2)[nH]c(C(=O)OCc2ccccc2)c1C
- TGI (A549 NSCLC): > 100 µM
- TGI (COLO 205 colon): 32.9 µM
- TGI (HCT-15 colon): 36.3 µM
- TGI (MDA-MB-231 breast): 28.9 µM
- TGI (MDA-MB-435): 32.6 µM
- TGI (PC-3 prostate): 60 µM
- TGI (RXF 393 renal): 49 µM
- TGI (SF-539 CNS): 37.5 µM
- TGI (SK-MEL-2 melanoma): 33.7 µM
- TGI (TK-10 renal): 76.2 µM

SMILES: COc1ccc(C(Cc2ccccc2)C2NC(=S)NC2=O)cc1 (centres undefined)
- TGI (A549 NSCLC): > 25 µM
- TGI (COLO 205 colon): > 25 µM
- TGI (HCT-15 colon): > 25 µM
- TGI (MDA-MB-231 breast): > 25 µM
- TGI (MDA-MB-435): > 25 µM
- TGI (PC-3 prostate): > 25 µM
- TGI (RXF 393 renal): > 25 µM
- TGI (SF-539 CNS): > 25 µM
- TGI (SK-MEL-2 melanoma): > 25 µM
- TGI (TK-10 renal): > 25 µM

SMILES: O=[N+]([O-])c1ccc2oc(=Nc3ccccc3)c(Nc3ccccc3)nc2c1
- TGI (A549 NSCLC): > 100 µM
- TGI (COLO 205 colon): > 100 µM
- TGI (HCT-15 colon): > 100 µM
- TGI (MDA-MB-231 breast): > 100 µM
- TGI (MDA-MB-435): > 100 µM
- TGI (PC-3 prostate): > 100 µM
- TGI (RXF 393 renal): > 100 µM
- TGI (SF-539 CNS): > 100 µM
- TGI (SK-MEL-2 melanoma): > 100 µM
- TGI (TK-10 renal): > 100 µM

SMILES: [O-][n+]1c(CN2CCCCC2)nc2cccc3c2c1-c1ccccc1-3
- TGI (A549 NSCLC): 33.1 µM
- TGI (COLO 205 colon): 64.3 µM
- TGI (HCT-15 colon): > 100 µM
- TGI (MDA-MB-231 breast): 95.6 µM
- TGI (MDA-MB-435): 68 µM
- TGI (PC-3 prostate): > 100 µM
- TGI (RXF 393 renal): 31.1 µM
- TGI (SF-539 CNS): 88.4 µM
- TGI (SK-MEL-2 melanoma): 43.7 µM
- TGI (TK-10 renal): 67.5 µM

SMILES: Nc1cccc(S(=O)(=O)Nc2nnc(S(N)(=O)=O)s2)c1
- TGI (A549 NSCLC): > 100 µM
- TGI (COLO 205 colon): > 100 µM
- TGI (HCT-15 colon): > 100 µM
- TGI (MDA-MB-231 breast): > 100 µM
- TGI (MDA-MB-435): > 100 µM
- TGI (PC-3 prostate): > 100 µM
- TGI (RXF 393 renal): > 100 µM
- TGI (SF-539 CNS): > 100 µM
- TGI (SK-MEL-2 melanoma): > 100 µM
- TGI (TK-10 renal): > 100 µM

SMILES: COc1ccc(CNC(=O)[C@@H]2CCCN2C(=O)[C@@H](C)N(C)C(=O)[C@H](C(C)C)N(C)C(=O)[C@@H](NC(=O)[C@H](C(C)C)N(Cc2ccccc2)Cc2ccccc2)C(C)C)c(OC)c1 (Bn2Val-V[NMeV][dNMeA]P-X29)
- TGI (A549 NSCLC): > 100 µM
- TGI (COLO 205 colon): 5.09 µM
- TGI (HCT-15 colon): 13.5 µM
- TGI (MDA-MB-231 breast): 3.46 µM
- TGI (MDA-MB-435): 6.61 µM
- TGI (PC-3 prostate): 10.1 µM
- TGI (RXF 393 renal): 3.94 µM
- TGI (SF-539 CNS): 4.69 µM
- TGI (SK-MEL-2 melanoma): 3.45 µM
- TGI (TK-10 renal): 22.4 µM

SMILES: Cc1ccnc2nc(N)ccc12
- TGI (A549 NSCLC): > 100 µM
- TGI (COLO 205 colon): > 100 µM
- TGI (HCT-15 colon): > 100 µM
- TGI (MDA-MB-231 breast): > 100 µM
- TGI (MDA-MB-435): > 100 µM
- TGI (PC-3 prostate): > 100 µM
- TGI (RXF 393 renal): > 100 µM
- TGI (SF-539 CNS): > 100 µM
- TGI (SK-MEL-2 melanoma): > 100 µM
- TGI (TK-10 renal): > 100 µM

SMILES: COC(=O)C(=O)C(C(=O)C(=O)Nc1cccc([N+](=O)[O-])c1)c1nc2ccc(Cl)cc2[nH]c1=O (centres undefined)
- TGI (A549 NSCLC): > 100 µM
- TGI (COLO 205 colon): > 100 µM
- TGI (HCT-15 colon): > 100 µM
- TGI (MDA-MB-231 breast): > 100 µM
- TGI (MDA-MB-435): > 100 µM
- TGI (PC-3 prostate): > 100 µM
- TGI (RXF 393 renal): > 100 µM
- TGI (SF-539 CNS): > 100 µM
- TGI (SK-MEL-2 melanoma): > 100 µM
- TGI (TK-10 renal): > 100 µM

SMILES: CCN(CC)CCCNC(=O)c1cc2cc(NC(=O)c3cc4cc([N+](=O)[O-])ccc4[nH]3)ccc2[nH]1
- TGI (A549 NSCLC): > 100 µM
- TGI (COLO 205 colon): > 100 µM
- TGI (HCT-15 colon): > 100 µM
- TGI (MDA-MB-231 breast): > 100 µM
- TGI (MDA-MB-435): > 100 µM
- TGI (PC-3 prostate): > 100 µM
- TGI (RXF 393 renal): > 100 µM
- TGI (SF-539 CNS): > 100 µM
- TGI (SK-MEL-2 melanoma): > 100 µM
- TGI (TK-10 renal): > 100 µM

SMILES: COc1ccc(C2OCCN2C)cc1 (centres undefined)
- TGI (A549 NSCLC): > 100 µM
- TGI (COLO 205 colon): > 100 µM
- TGI (HCT-15 colon): > 100 µM
- TGI (MDA-MB-231 breast): > 100 µM
- TGI (MDA-MB-435): > 100 µM
- TGI (PC-3 prostate): > 100 µM
- TGI (RXF 393 renal): > 100 µM
- TGI (SF-539 CNS): > 100 µM
- TGI (SK-MEL-2 melanoma): > 100 µM
- TGI (TK-10 renal): > 100 µM

SMILES: COC(=O)[C@@](C)(COC(=O)C(C)(C)C)NC(=O)OC(C)(C)C
- TGI (A549 NSCLC): > 100 µM
- TGI (COLO 205 colon): > 100 µM
- TGI (HCT-15 colon): > 100 µM
- TGI (MDA-MB-231 breast): > 100 µM
- TGI (MDA-MB-435): > 100 µM
- TGI (PC-3 prostate): > 100 µM
- TGI (RXF 393 renal): > 100 µM
- TGI (SF-539 CNS): > 100 µM
- TGI (SK-MEL-2 melanoma): > 100 µM
- TGI (TK-10 renal): > 100 µM

SMILES: Cc1nc2n(c1/C=C1/C(=O)Nc3ccccc31)CCS2
- TGI (A549 NSCLC): > 100 µM
- TGI (COLO 205 colon): 47.6 µM
- TGI (HCT-15 colon): > 100 µM
- TGI (MDA-MB-231 breast): > 100 µM
- TGI (MDA-MB-435): 36.1 µM
- TGI (PC-3 prostate): > 100 µM
- TGI (RXF 393 renal): 71.3 µM
- TGI (SF-539 CNS): > 100 µM
- TGI (SK-MEL-2 melanoma): 26.2 µM
- TGI (TK-10 renal): > 100 µM

SMILES: O=S(=O)(O)c1cccc2cccc(N=Nc3c(O)ccc4ccccc34)c12
- TGI (A549 NSCLC): > 100 µM
- TGI (COLO 205 colon): > 100 µM
- TGI (HCT-15 colon): > 100 µM
- TGI (MDA-MB-231 breast): > 100 µM
- TGI (MDA-MB-435): > 100 µM
- TGI (PC-3 prostate): > 100 µM
- TGI (RXF 393 renal): > 100 µM
- TGI (SF-539 CNS): > 100 µM
- TGI (SK-MEL-2 melanoma): > 100 µM
- TGI (TK-10 renal): > 100 µM

SMILES: CC1(C)C(CCO)CC1n1ccc(=O)[nH]c1=O (centres undefined)
- TGI (A549 NSCLC): > 100 µM
- TGI (HCT-15 colon): > 100 µM
- TGI (MDA-MB-231 breast): > 100 µM
- TGI (MDA-MB-435): > 100 µM
- TGI (PC-3 prostate): > 100 µM
- TGI (RXF 393 renal): > 100 µM
- TGI (SF-539 CNS): > 100 µM
- TGI (SK-MEL-2 melanoma): > 100 µM
- TGI (TK-10 renal): > 100 µM

SMILES: OCC(CCc1ccccc1I)C1=CCC2(CC1)OCCO2 (centres undefined)
- TGI (A549 NSCLC): 62.4 µM
- TGI (COLO 205 colon): 34.6 µM
- TGI (HCT-15 colon): 54.7 µM
- TGI (MDA-MB-231 breast): 62.9 µM
- TGI (MDA-MB-435): 30.7 µM
- TGI (PC-3 prostate): 52.5 µM
- TGI (RXF 393 renal): 34.9 µM
- TGI (SF-539 CNS): 32.5 µM
- TGI (SK-MEL-2 melanoma): 51 µM
- TGI (TK-10 renal): 50.7 µM
